Test results: patent US12344631B2, “C17 polar-substituted heteroaromatic synthetic triterpenoids and methods of use thereof” (REATA PHARMACEUTICALS, INC., priority 2019, dated 2025)

What was measured:
CYP3A4 = CYP3A4 (Homo sapiens, UniProt P08684); assay: CYP3A4 (midazolam) inhibition in human liver microsomes; conditions: for CYP3A4 inhibition compared with historical data for RTA 402 and RTA 408: comparable conditions (FIG. 1); for inhibition at 10 min, 1 μM: human, human liver microsomes, probe midazolam (5 μM); for CYP3A4 inhibition lower than the corresponding unsubstituted compound: vs CC2, CC1 or CC3, 1 μM
Chain of CYP3A4 (P08684 whole entry): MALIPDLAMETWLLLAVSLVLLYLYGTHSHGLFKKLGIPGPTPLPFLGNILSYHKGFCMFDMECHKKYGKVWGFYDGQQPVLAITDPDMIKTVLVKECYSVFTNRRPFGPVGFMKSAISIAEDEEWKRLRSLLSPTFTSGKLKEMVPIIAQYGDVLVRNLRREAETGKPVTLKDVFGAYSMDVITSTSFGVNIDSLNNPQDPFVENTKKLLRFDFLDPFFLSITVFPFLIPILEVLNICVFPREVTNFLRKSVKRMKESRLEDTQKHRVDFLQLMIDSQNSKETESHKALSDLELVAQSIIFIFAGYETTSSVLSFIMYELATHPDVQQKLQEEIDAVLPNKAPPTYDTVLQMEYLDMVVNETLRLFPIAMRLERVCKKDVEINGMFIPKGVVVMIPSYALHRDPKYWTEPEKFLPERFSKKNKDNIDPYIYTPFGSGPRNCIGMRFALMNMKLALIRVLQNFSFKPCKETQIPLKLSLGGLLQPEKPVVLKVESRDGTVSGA

[1] = tested on: AREc32 reporter cell line (antioxidant response element of rat Gsta2, Nrf2 target gene); assay: AREc32 luciferase reporter activation; type: cell-based, human; conditions: for AREc32 EC2X Relative to RTA 402 (fold) (Mean ± SD): average of ratios from replicate experiments, benchmark RTA 402; for AREc32 Relative to CC in Same Experiment (Mean ± SD): average of ratios from experiments with direct comparisons; for EC (2-fold): human, Arec32, 19 h, concentration increasing luminescence signal 2-fold above vehicle, nineteen hours, read-out: AREc32 EC2X (nM) (Mean ± SD)
Procedure, shortened: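 MCF-7-derived cells carry luciferase driven by eight copies of the rat Gsta2 ARE. EC2X was extrapolated from a nonlinear fit of fold increase over vehicle.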

[2] = tested on: AML-12 hepatocyte cell line; assay: Glutathione assay (total glutathione, GSH-Glo); type: cell-based, mouse; conditions: for EC50: Mus musculus, AML12, AML-12 cells, 24 hours, total glutathione, read-out: GSH EC50 (nM) (Mean ± SD); for GSH EC50 Relative to RTA 402 (fold) (Mean ± SD): benchmark RTA 402
Procedure, shortened: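 Mouse AML-12 hepatocytes were treated with compound (0.03 nM to 1000 nM, 0.1% DMSO) for 24 hours at 37° C., and total glutathione was measured by GSH-Glo luminescence against a glutathione standard curve. EC50 values came from nonlinear regression, with basal glutathione set to 0% and the maximal compound-induced level set to 100%.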

RAW 264.7 cells = assay: Nitric oxide suppression assay (IFNγ-induced NO production); type: cell-based, mouse; conditions: for IC50: Mus musculus, RAW264.7, RAW 264.7 cells, 2 h pretreatment, 20 ng/mL interferon gamma 24 h, nitrite by Griess, read-out: NO IC50 (nM) (Mean ± SD); for NO IC50 Relative to RTA 402 (fold) (Mean ± SD): average of ratios from replicate experiments, benchmark RTA 402
Procedure, shortened: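 Mouse RAW 264.7 macrophages in RPMI 1640 with 0.5% FBS were pretreated with compounds for 2 h at 37° C (0.1% DMSO final), then stimulated with 20 ng/mL IFNγ for 24 h. Nitrite in the supernatant was read at 525 nm against standards and normalized to DMSO/IFNγ wells. IC50 values were fitted with dependence on WST-1 viability.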

Structure (SMILES) | CYP3A4 inhibition compared with historical data for RTA 402 and RTA 408 (CYP3A4) | inhibition at 10 min, 1 μM (CYP3A4) [%] | CYP3A4 inhibition lower than the corresponding unsubstituted compound (CYP3A4) [%] | AREc32 EC2X Relative to RTA 402 (fold) (Mean ± SD) [1] | AREc32 Relative to CC in Same Experiment (Mean ± SD) ([1]; comparison compound CC2) | EC (2-fold) [1] [nM] | EC50 [2] [nM] | GSH EC50 Relative to RTA 402 (fold) (Mean ± SD) [2] | IC50 (RAW 264.7 cells) [nM] | NO IC50 Relative to RTA 402 (fold) (Mean ± SD) (RAW 264.7 cells) | AREc32 Relative to CC in Same Experiment (Mean ± SD) ([1]; comparison compound CC1) | AREc32 Relative to CC in Same Experiment (Mean ± SD) ([1]; comparison compound CC3)
CC1(C)CC[C@]2(c3noc(CF)n3)CC[C@]3(C)[C@H](C(=O)C=C4[C@@]5(C)C=C(C#N)C(=O)C(C)(C)[C@@H]5CC[C@]43C)[C@@H]2C1 [Compound T1] | reduced CYP3A4 inhibition | 29.1 | 36 | 0.46 ± 0.13 | 0.62 ± 0.07 | 6.2 ± 1.37 | 0.57 ± 0.22 | 0.35 ± 0.12 | 1.24 | 0.52 ± 0.12 | – | –
CC1(C)CC[C@]2(c3noc(CN)n3)CC[C@]3(C)[C@H](C(=O)C=C4[C@@]5(C)C=C(C#N)C(=O)C(C)(C)[C@@H]5CC[C@]43C)[C@@H]2C1 [Compound T2] | reduced CYP3A4 inhibition | 21.4 | 53 | 0.28 ± 0.04 | 0.43 ± 0.00 | 3.67 ± 0.28 | 1.21 ± 1.15 | 0.47 ± 0.38 | 1.15 | 0.38 ± 0.09 | – | –
CC1(C)CC[C@]2(c3nnc(CF)o3)CC[C@]3(C)[C@H](C(=O)C=C4[C@@]5(C)C=C(C#N)C(=O)C(C)(C)[C@@H]5CC[C@]43C)[C@@H]2C1 [Compound T11] | reduced CYP3A4 inhibition | 17.7 | 15 | 0.25 ± 0.08 | – | 3.23 ± 0.77 | 0.54 ± 0.29 | 0.32 ± 0.13 | 0.98 | 0.37 ± 0.07 | 0.27 ± 0.03 | –
CC1(C)CC[C@]2(c3nc(CF)no3)CC[C@]3(C)[C@H](C(=O)C=C4[C@@]5(C)C=C(C#N)C(=O)C(C)(C)[C@@H]5CC[C@]43C)[C@@H]2C1 [Compound T12] | reduced CYP3A4 inhibition | 29.7 | 35 | 0.53 ± 0.12 | 0.75 ± 0.05 | 6.87 ± 1.57 | 0.82 ± 0.4 | 0.50 ± 0.19 | 1.27 | 0.52 ± 0.12 | – | –
C[C@@H]1C(=O)C(C#N)=C[C@]2(C)C3=CC(=O)[C@@H]4[C@@H]5CC(C)(C)CC[C@]5(c5nc(CF)no5)CC[C@@]4(C)[C@]3(C)CC[C@@H]12 [Compound T34] | reduced CYP3A4 inhibition | 29.4 | 22 | 0.36 ± 0.05 | – | 4.5 ± 0.66 | 0.35 ± 0.06 | 0.18 ± 0.02 | 0.93 | 0.28 ± 0.06 | – | 0.76 ± 0.14
